Measured values as given in patent US20230158025A1 (UNIVERSITY OF UTAH RESEARCH FOUNDATION, priority 2020, published 2023).
Like-named read-outs stand apart in the source and are kept apart here.

Assays:
hGALK1m = molecular target: T1, hGALK1m (Homo sapiens, UniProt P51570, E253A/K252A); assay: in vitro hGALK1 activity assay of the structure-based optimisation (Example 12, Tables 17-20); assay type: biochemical; details: for Emax: Tables 18-19, read-out: Max Response (%)
T1 construct: made in house; host or cells: E. coli HMS174
T1 sequence (P51570 whole entry K252A/E253A): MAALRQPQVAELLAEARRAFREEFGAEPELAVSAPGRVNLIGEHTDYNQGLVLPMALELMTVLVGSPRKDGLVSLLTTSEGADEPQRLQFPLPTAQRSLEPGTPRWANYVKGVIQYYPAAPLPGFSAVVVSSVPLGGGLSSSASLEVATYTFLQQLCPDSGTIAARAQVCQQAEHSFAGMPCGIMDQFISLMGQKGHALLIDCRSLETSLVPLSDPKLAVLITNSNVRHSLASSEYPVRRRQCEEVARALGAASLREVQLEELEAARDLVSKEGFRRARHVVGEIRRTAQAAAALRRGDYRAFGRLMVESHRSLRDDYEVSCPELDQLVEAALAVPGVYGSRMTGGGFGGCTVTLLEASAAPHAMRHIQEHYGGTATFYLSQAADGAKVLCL
Experimental: In vitro hGALK1 activity assays were performed as previously described. Liu et al., Bioorg. Med. Chem. Lett. 25(3): 721-727 (2015), which is incorporated by reference herein for the specific teachings thereof. The biochemical assay was performed by coupling the activity of recombinant human or mouse GALK1 to the Kinase-Glo Plus luminescent ATP detection kit, using ATP depletion as a measure of GALK1 turnover. Specifically, three μL/well of ATP substrate solution (35 μM ATP) in assay buffer (20 mM HEPES pH 8.0, 5 mM MgCl2, 60 mM NaCl, 1 mM DTT, 0.01% BSA final concentration) was dispensed into 1536-well assay plates (Greiner, white solid-bottom medium-binding plates). Aliquots of compound (23 nL solubilized in DMSO) were transferred to the assay plates using a Kalypsys 1536-well pintool such that 11 concentrations with 1/3 dilutions ranging from 57.4 μM-0.97 nM are tested. One μL/well of GALK-galactose solution (5 nM GALK1, 100 μM galactose) in assay buffer was then added, yielding a final reaction volume of 4 μL/well. Following a 1-hour room temperature incubation, 4 μL of Kinase-Glo Plus detection reagent was added to provide an ATP-dependent luminescent readout (final assay volume: 8 μL/well). Luminescence was detected using a ViewLux plate reader (PerkinElmer) after a 10-minute incubation, using a 1 second exposure time and 2× binning.
The in vitro hGALK1 activity assay was performed as previously described. Liu et al., Bioorg. Med. Chem. Lett. 25(3): 721-727 (2015). For the measurement of cellular Gal-1P reduction, compounds at different concentrations were added to cultured patient fibroblast at 80% confluency. After incubating the compounds for 16 hours, 10 mM galactose was added to the culture. After another 4 hours, cells were washed with cold PBS buffer 3× and harvested for gal-1P measurement, according to the previously published method. Liu et al., Bioorg. Med. Chem. Lett. 25(3): 721-727 (2015).

recombinant human GALK1 = recombinant human GALK1 (Homo sapiens, UniProt P51570); assay: hGALK1 biochemical activity assay (Kinase-Glo Plus, ATP depletion)
Sequence of recombinant human GALK1 (P51570 whole entry): as the sequence (P51570 whole entry K252A/E253A) above, with A252K, A253E counted along it
Procedure, shortened: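 Recombinant human or mouse GALK1 (5 nM, with 100 μM galactose, in the added enzyme solution) was run with ATP (35 μM in the substrate solution) in HEPES pH 8.0 buffer. Compounds were tested at 11 1/3-step concentrations from 57.4 μM to 0.97 nM. After 1 h at room temperature, remaining ATP was read by Kinase-Glo Plus luminescence.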

recombinant mouse GALK1 = recombinant mouse GALK1 (Mus musculus, UniProt Q9R0N0); assay: mGALK1 biochemical activity assay (Kinase-Glo Plus, ATP depletion)
Sequence of recombinant mouse GALK1 (Q9R0N0 whole entry): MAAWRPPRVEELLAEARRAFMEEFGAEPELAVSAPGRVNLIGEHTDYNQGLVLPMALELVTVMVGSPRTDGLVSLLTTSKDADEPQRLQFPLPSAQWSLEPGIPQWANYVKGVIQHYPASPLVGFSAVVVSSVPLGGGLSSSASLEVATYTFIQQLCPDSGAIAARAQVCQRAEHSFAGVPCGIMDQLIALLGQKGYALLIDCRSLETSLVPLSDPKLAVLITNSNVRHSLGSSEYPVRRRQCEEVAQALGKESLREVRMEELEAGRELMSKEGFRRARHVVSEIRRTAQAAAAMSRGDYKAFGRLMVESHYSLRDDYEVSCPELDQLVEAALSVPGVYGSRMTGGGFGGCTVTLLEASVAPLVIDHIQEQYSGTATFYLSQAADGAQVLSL
Procedure, shortened: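 Recombinant GALK1 (5 nM) with 100 μM galactose; GALK1 turnover read as ATP depletion by Kinase-Glo Plus luminescence. Reaction ran 1 h at room temperature before detection reagent was added.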

[1] = aqueous kinetic solubility
PAMPA permeability = details: for Papp: PAMPA, ADME P: PAMPA permeability (class), Tables 17-19, class probably colour-coded, colour lost
[2] = rat microsomal stability (RLM); details: for Metab. Stabil. (m): microsomal half-life; for half-life: rat, rat liver microsomes
[3] = Tables 18-19 and text of Example 12
[4] = recombinant human GALK1, Kinase-Glo Plus ATP depletion, read-out: hGALK
[5] = Tables 2-15, 35 μM ATP, 100 μM galactose, 1 h, bracketed figure after some values is undefined and not reported, read-out: mGALK IC50
[6] = recombinant mouse GALK1, Kinase-Glo Plus ATP depletion, read-out: mGALK
[7] = Tables 2-15, 35 μM ATP, 100 μM galactose, 1 h, bracketed figure after some values (e.g. −1.2) is undefined and not reported, read-out: hGALK IC50

Structure (SMILES)	Emax (hGALK1m) [%]	IC50 (hGALK1m; [3]) [nM]	fold decrease of potency versus parent compound (hGALK1m; loss of potency relative to the unsubstituted parent)	IC50 (recombinant human GALK1; [4]) [nM]	IC50 (recombinant mouse GALK1; [5]) [µM]	IC50 (recombinant mouse GALK1; [6]) [µM]	Sol. [1] [µg/mL]	Papp (PAMPA permeability) [×10⁻⁶ cm/s]	Metab. Stabil. (m) [2] [m]	half-life [2] [min]	IC50 (hGALK1m; Tables 18-20 and text of Example 12) [nM]	fold improvement of potency (IC50) versus parent compound (hGALK1m; increase in potency relative to the unsubstituted parent) [fold]	IC50 (recombinant human GALK1; [7]) [nM]	change of potency versus parent compound (in words) (hGALK1m)	Perm. (1 × 10^−6 cm/sec) (PAMPA permeability)	hGALK IC50 (recombinant human GALK1; Tables 2-15, 35 μM ATP, 100 μM galactose, 1 h, bracketed figure after some values (e.g. −1.2) is undefined and not reported)	hGALK (μM) (recombinant human GALK1; recombinant human GALK1, Kinase-Glo Plus ATP depletion)	mGALK IC50 (recombinant mouse GALK1; Tables 2-15, 35 μM ATP, 100 μM galactose, 1 h, bracketed figure after some values is undefined and not reported)	mGALK (μM) (recombinant mouse GALK1; recombinant mouse GALK1, Kinase-Glo Plus ATP depletion)
CC1=C(C(=O)Nc2cc(C(=O)O)ccn2)C(c2ccccc2Cl)N=C(Nc2nc3ccc(Cl)cc3o2)N1 (stereo not drawn) [Compound 14, 2-(2-((6-chlorobenzo[d]oxazol-2-yl)amino)-4-(2-chlorophenyl)-6-methyl-1,4-dihydropyrimidine-5-carboxamido)isonicotinic acid]	100	2250	more than 2 fold	1930	6.11	6.11	6.3	< 10	>30	< 10	–	–	–	–	–	–	–	–	–
CC1=C(C(=O)Nc2cc(C(=O)O)ccn2)C(c2ccccc2Cl)N=C(Nc2nc3cccc(C)c3o2)N1 (stereo not drawn) [Compound 15, 2-(4-(2-chlorophenyl)-6-methyl-2-((7-methylbenzo[d]oxazol-2-yl)amino)-1,4-dihydropyrimidine-5-carboxamido)isonicotinic acid]	100	–	–	–	6.85	6.85	>76	< 10	>30	< 10	365	2.6	970	–	–	–	–	–	–
CC1=C(C(=O)Nc2cc(C(=O)O)ccn2)C(c2ccccc2Cl)N=C(Nc2nc3cccc(C(F)(F)F)c3o2)N1 (stereo not drawn) [Compound 16, 2-(4-(2-chlorophenyl)-6-methyl-2-((7-(trifluoromethyl)benzo[d]oxazol-2-yl)amino)-1,4-dihydropyrimidine-5-carboxamido)isonicotinic acid]	100	> 15000	–	21700	48.5	48.6	61.135	< 10	>30	< 10	–	–	–	greatly compromised the potencies	<1 1 × 10^−6 cm/sec	–	–	–	–
CC1=C(C(=O)Nc2cc(C(=O)O)ccn2)C(c2ccccc2Cl)N=C(Nc2nc3cccc(Cl)c3o2)N1 (stereo not drawn) [Compound 17, 2-(2-((7-chlorobenzo[d]oxazol-2-yl)amino)-4-(2-chlorophenyl)-6-methyl-1,4-dihydropyrimidine-5-carboxamido)isonicotinic acid]	100	1000	–	–	9.68	9.68	57.5	< 10	>30	< 10	–	–	1930	did not change the potency	<1 1 × 10^−6 cm/sec	–	–	–	–
CC1=C(C(=O)Nc2cc(C(=O)O)ccn2)C(c2ccccc2Cl)N=C(Nc2nc3c(C)cccc3o2)N1 (stereo not drawn) [Compound 18, 2-(4-(2-chlorophenyl)-6-methyl-2-((4-methylbenzo[d]oxazol-2-yl)amino)-1,4-dihydropyrimidine-5-carboxamido)isonicotinic acid]	100	5500	–	9680	17.2	17.2	3.5	< 10	>30	< 10	–	–	–	–	<1.3 1 × 10^−6 cm/sec	–	–	–	–
CC1=C(C(=O)Nc2cc(C(=O)O)ccn2)C(c2ccccc2Cl)N=C(Nc2nc3cccc(OC(F)(F)F)c3o2)N1 (stereo not drawn) [Compound 21, 2-(4-(2-chlorophenyl)-6-methyl-2-((7-(trifluoromethoxy)benzo[d]oxazol-2-yl)amino)-1,4-dihydropyrimidine-5-carboxamido)isonicotinic acid]	88	> 15000	–	–	–	–	47.8	< 10	>30	< 10	–	–	–	greatly compromised the potencies	–	inactive	in- active	inactive	in- active
